Like-named read-outs stand apart in the source and are kept apart here.
Legend:
Single-turnover [1] = test: Single-turnover; set-up: species or system [13, 20]; details: read-out: Kd (incoming nucleotide, Pol•DNA complex), Pol β, 37 °C
Single-turnover [2] = test: Single-turnover; set-up: species or system [13, 20]; details: read-out: Kd (incoming nucleotide, Pol•DNA complex), Pol λ, 37 °C
Single-turnover [3] = test: Single-turnover; set-up: species or system [13, 20]; details: read-out: Kd (incoming nucleotide, Pol•DNA complex), Pol η, 37 °C
Single-turnover [4] = test: Single-turnover; set-up: species or system [13, 20]; details: Pol κ; for Kd: read-out: Kd (incoming nucleotide, Pol•DNA complex), 37 °C
Single-turnover [5] = test: Single-turnover; set-up: species or system [13, 20]; details: Pol ι; for Kd: read-out: Kd (incoming nucleotide, Pol•DNA complex), 37 °C
Single-turnover [6] = test: Single-turnover; set-up: species or system [13, 20]; details: Rev1; for Kd: read-out: Kd (incoming nucleotide, Pol•DNA complex)
[7] = Single-turnover kinetic assays, summary over the non-canonical human pols; set-up: species or system [13, 20]
[8] = read-out: Kd (incoming nucleotide, Pol•DNA complex); HIV-1 RT; opposite template dC; 37 °C; cited from earlier work
[9] = read-out: Kd (incoming nucleotide, Pol•DNA complex), Pol β, 37 °C, cited from earlier work
[10] = read-out: Kd (incoming nucleotide, Pol•DNA complex), Pol λ, 37 °C, cited from earlier work
[11] = read-out: Kd (incoming nucleotide, Pol•DNA complex), Pol η, 37 °C, cited from earlier work
[12] = read-out: Kd (incoming nucleotide, Pol•DNA complex), Pol κ, 37 °C, cited from earlier work
[13] = Pol ι, 37 °C, cited from earlier work; for Kd: read-out: Kd (incoming nucleotide, Pol•DNA complex)
[14] = Rev1, 37 °C, cited from earlier work; for Kd: read-out: Kd (incoming nucleotide, Pol•DNA complex)
[15] = read-out: Kd (incoming nucleotide, Pol•DNA complex), Pol γ, 37 °C, cited from earlier work
[16] = Pols β, λ, η, ι, κ, Rev1; cited from earlier work
[17] = read-out: Kd (incoming nucleotide, Pol•DNA complex); T7 exo; opposite template dT; 37 °C; cited from earlier work

SMILES: C=C1[C@H](COP(=O)(O)OP(=O)(O)OP(=O)(O)O)[C@@H](O)C[C@@H]1n1cnc2c(=O)[nH]c(N)nc21 [ETV-TP, entecavir 5′-triphosphate]
- Kd (Single-turnover [1]; opposite template dC): 0.26 ± 0.04 µM
- Kd (Single-turnover [2]; opposite template dC): 0.09 ± 0.02 µM
- Kd (Single-turnover [3]; opposite template dC): 2.4 ± 0.4 µM
- Kd (Single-turnover [4]; opposite template dC): 4.2 ± 0.1 µM
- Kd (Single-turnover [5]; opposite template dC): 33 ± 5 µM
- Kd (Single-turnover [6]; opposite template dC, 37 °C): 56 ± 10 µM
- Rate of incorporation slower than dGTP, on average ([7]; Pols β, λ, η, ι, κ, Rev1): 120 fold
- Binding affinity tighter than dGTP, on average ([7]; except for Rev1): approximately 20 fold
- Kd [8]: 2.23 ± 0.67 µM

SMILES: Nc1ccn([C@H]2CS[C@@H](COP(=O)(O)OP(=O)(O)OP(=O)(O)O)O2)c(=O)n1 [L-3TC-TP, β-L-2′,3′-dideoxy-3′-thiacytidine 5′-triphosphate]
- Kd ([9]; opposite template dG): 0.18 ± 0.02 µM
- Kd ([10]; opposite template dG): 0.106 ± 0.01 µM
- Kd ([11]; opposite template dG): 3.3 ± 0.3 µM
- Kd ([12]; opposite template dG): 4 ± 0.5 µM
- Kd ([13]; opposite template dG): 96 ± 8 µM
- Kd ([14]; opposite template dG): 1.04 ± 0.1 µM
- Kd ([15]; opposite template dG): 9.2 ± 0.9 µM
- Decrease of Kd compared to dCTP, on average [16]: 6 fold

SMILES: Cc1cn([C@@H]2C[C@@H](O)[C@H](COP(=O)(O)OP(=O)(O)OP(=O)(O)O)O2)c(=O)[nH]c1=O [L-TBV-TP, β-L-2′-deoxythymidine 5′-triphosphate]
- Kd (Single-turnover [1]; opposite template dA): 11 ± 1 µM
- Kd (Single-turnover [2]; opposite template dA): 53 ± 6 µM
- Kd (Single-turnover [3]; opposite template dA): 400 ± 100 µM
- Kd (Single-turnover [4]; opposite template dA): 90 ± 20 µM
- Kd (Single-turnover [5]; opposite template dA): 100 ± 30 µM
- Kd (incoming nucleotide, Pol•DNA complex) (Single-turnover [6]; opposite template dA, 37 °C): No observed incorporation
- Selection factors, range over the non-canonical human pols ([7]; Pols β, λ, η, ι, κ, Rev1, analog vs its natural dNTP, 37 °C): greater than 8,000
- Binding to the Pol•DNA complex weakened compared to dTTP, on average ([7]; pols other than Rev1): 10 fold

SMILES: Nc1ncnc2c1ncn2CCOCP(=O)(O)OP(=O)(O)OP(=O)(O)O [PMEA-DP, diphosphate of 9-[2-(phosphonomethoxy)ethyl]adenine]
- Kd (Single-turnover [1]; opposite template dT): 65 ± 6 µM
- Kd (Single-turnover [2]; opposite template dT (21-19C-41merTG)): 4.5 ± 0.3 µM
- Kd (Single-turnover [3]; opposite template dT): 55 ± 18 µM
- Decrease of rate of incorporation relative to dATP (Single-turnover [4]; opposite template dT): 60 fold
- Ground-state binding affinity (1/Kd) weaker than dATP (Single-turnover [4]; opposite template dT): 3 fold
- Kd (Single-turnover [4]; opposite template dT): 23 ± 3 µM
- Decrease of rate of incorporation relative to dATP (Single-turnover [5]; opposite template dT): 30 fold
- Ground-state binding affinity (1/Kd) relative to dATP (Single-turnover [5]; opposite template dT): unchanged
- Kd (Single-turnover [5]; opposite template dT): 180 ± 40 µM
- Decrease of rate of incorporation relative to dATP (Single-turnover [6]; opposite template dT): 4 fold
- Ground-state binding affinity (1/Kd) weaker than dATP (Single-turnover [6]; opposite template dT): 60 fold
- Kd (Single-turnover [6]; opposite template dT, 37 °C): 120 ± 20 µM

SMILES: CC(Cn1cnc2c(N)ncnc21)OCP(=O)(O)OP(=O)(O)OP(=O)(O)O (stereo not drawn) [PMPA-DP, diphosphate of 9-[2-(phosphonomethoxy)propyl]adenine]
- Kd ([9]; opposite template dT): 50 ± 10 µM
- Kd ([10]; opposite template dT): 3.7 ± 0.9 µM
- Kd ([11]; opposite template dT): 90 ± 10 µM
- Kd ([12]; opposite template dT): 3000 ± 2000 µM
- Kd (incoming nucleotide, Pol•DNA complex) ([13]; opposite template dT): No observed incorporation
- kp (maximum rate of incorporation) ([13]; opposite template dT): too inefficient to be observed
- Kd (incoming nucleotide, Pol•DNA complex) ([14]; opposite template dT): No observed incorporation
- kp (maximum rate of incorporation) ([14]; opposite template dT): too inefficient to be observed
- Kd ([15]; opposite template dT): 40.3 ± 5.7 µM
- Kd [17]: 268 ± 39 µM

SMILES: Nc1ncnc2c1ncn2[C@H]1C[C@H](O)[C@@H](COP(=O)(O)OP(=O)(O)OP(=O)(O)O)O1 [dATP]
- Kd ([9]; opposite template dT): 9.2 ± 1 µM
- Kd ([10]; opposite template dT): 0.9 ± 0.3 µM
- Kd ([11]; opposite template dT): 130 ± 30 µM
- Kd ([12]; opposite template dT): 7 ± 1 µM
- Kd ([13]; opposite template dT): 260 ± 40 µM
- Kd ([14]; opposite template dT): 2 ± 0.3 µM
- Kd ([15]; opposite template dT): 0.8 ± 0.1 µM
- Kd [17]: 8 ± 2 µM

SMILES: Nc1ccn([C@H]2C[C@H](O)[C@@H](COP(=O)(O)OP(=O)(O)OP(=O)(O)O)O2)c(=O)n1 [dCTP]
- Kd ([9]; opposite template dG): 0.71 ± 0.04 µM
- Kd ([10]; opposite template dG): 0.9 ± 0.1 µM
- Kd ([11]; opposite template dG): 25 ± 4 µM
- Kd ([12]; opposite template dG): 32 ± 5 µM
- Kd ([13]; opposite template dG): 50 ± 5 µM
- Kd ([14]; opposite template dG): 2.2 ± 0.3 µM
- Kd ([15]; opposite template dG): 1.1 ± 0.1 µM

SMILES: Nc1nc2c(ncn2[C@H]2C[C@H](O)[C@@H](COP(=O)(O)OP(=O)(O)OP(=O)(O)O)O2)c(=O)[nH]1 [dGTP]
- Kd (Single-turnover [1]; opposite template dC): 8.7 ± 0.4 µM
- Kd (Single-turnover [3]; opposite template dC): 80 ± 10 µM
- Kd (Single-turnover [4]; opposite template dC): 10.6 ± 0.9 µM
- Kd (Single-turnover [5]; opposite template dC): 141 ± 8 µM
- Kd (Single-turnover [6]; opposite template dC, 37 °C): 3.9 ± 0.8 µM
- Kd ([10]; opposite template dC): 2.1 ± 0.3 µM
- Kd [8]: 1.76 ± 0.51 µM

SMILES: Cc1cn([C@H]2C[C@H](O)[C@@H](COP(=O)(O)OP(=O)(O)OP(=O)(O)O)O2)c(=O)[nH]c1=O [dTTP]
- Kd ([9]; opposite template dA): 3.5 ± 0.5 µM
- Kd ([10]; opposite template dA): 2.6 ± 0.4 µM
- Kd ([11]; opposite template dA): 41 ± 5 µM
- Kd ([12]; opposite template dA): 11 ± 0.5 µM
- Kd ([13]; opposite template dA): 13 ± 1 µM
- Kd ([14]; opposite template dA): 6 ± 1 µM
